Results taken from patent US20250222028A1, “ENGINEERED IMMUNE CELL PLATFORM” (Cancer Research Technology Limited, priority 2022, published 2025).

Assays:
RMA/S tumour cells [1] = experiment: VITAL assay, murine NK cells with NK-sensitive RMA/S cells; format: cell-based; details: 5 μM GANT61 vs carrier control
Description: (§1) FIG. 4. Gli1 is important for specific tumour cell killing by murine NK cells. (A) NK cells were isolated from WT C57BL/6 mice and were treated using either the Gli1/Gli2 inhibitor GANT61 (squares) or carrier control (circles). LDH killing assays (left panel) and VITAL assays (right panel) were performed to assess specific cell killing of NK-sensitive RMA/S tumour cells. Left panel: Representative data of n=3 independent experiments. Right panel: data from 2 individual mice per genotype. (B) To specifically investigate the contribution of Gli1 towards NK cell effector function, LDH killing assays (left panel) and VITAL assays (right panel) were performed using NK cells isolated from both WT (circles) and Gli1 knockout (KO, squares) mice. Left panel: representative data from n=2 independent experiments. Right panel: data from 2 individual mice per genotype.
(§2) It was hypothesised that the therapeutic effect of L-type Cav channel agonists may be conserved between CD8+ T and NK cells. To investigate this hypothesis, NK cells were isolated from spleens of C57BL/6 wildtype mice using a MACS negative isolation protocol, and expanded in vitro for 7 days in the presence of 500 IU/L IL-2. […]

NK cells = experiment: Flow cytometric analysis of Granzyme B and IFNγ in NK cells; format: cell-based, mice; details: 10 μM, overnight (~18 hours)
Description: FIG. 10. GzmB content and IFNγ secretion are unaffected by Gli inhibition in NK cells. NK cells were isolated from C57BL/6 mice and treated with 10 μM GANT61 or carrier control (EtOH) overnight (˜18 hours) prior to analysis of intracellular granzyme B (GzmB) and IFNγ expression by flow cytometry. (A) Representative flow cytometry plots. (B) Quantification of flow cytometry plots. Data is from n=2 mice, 1 independent experiment.
(§3) To investigate this further, the effect of GANT61 inhibition on Granzyme B and IFNγ secretion was investigated. Cytotoxic CD4+ cells were generated from OT-II mice and treated with 5 μM GANT61 or carrier control on day 7 for 24 h prior to flow cytometric analysis of Granzyme B (GzmB) and IFNγ levels on day 8. NK cells were isolated from C57BL/6 mice and treated with 10 μM GANT61 or carrier control (EtOH) overnight (˜18 hours) prior to analysis of intracellular granzyme B (GzmB) and IFNγ expression by flow cytometry. In both cytotoxic CD4+ cells (FIG. 9) and NK cells (FIG. 10), the GzmB content and IFNγ secretion were unaffected by Gli inhibition.

[2] = test system: B cells (as target cells); experiment: LDH assay, murine cytotoxic CD4+ T cells (OT-II) with B cells as target cells; format: cell-based; details: 5 μM, 24 h prior to co-culture, vs carrier control
Description: FIG. 8. Gli1 mediates specific cell killing by murine cytotoxic CD4+ T cells. Cytotoxic CD4+ T cells were generated from OT-II mice and treated with 5 μM Gli1/Gli2 inhibitor GANT61 (grey) or carrier control (black) for 24 hours before an LDH assay was performed to assess specific cell killing. Data is from n=3 independent experiments.
Experiments 1, 2, 3 and 4 identify Gli1 transcription as a mediator of specific cell killing in CD8+ CTLs and in NK cells, in humans and in mice. To investigate whether Gli1 also plays a role in driving the effector function of CD4+ T cells, cells were isolated from the spleens of OT-II mice and CTLs were generated. Cells were treated using GANT61 at a concentration of 5 μM or carrier control, 24 h prior to being co-cultured with B cells (as target cells) at the effector:target ratios indicated in FIG. 8.

P815 target cells = format: cell-based, human
Description: FIG. 15. GLI inhibitor GANT61 reduces tumour cell killing of human CD8+ cytotoxic T lymphocytes. PBMCs were isolated from Buffy Coats of healthy donors using SepMate PBMC Isolation Tubes. CD8+ T cells were isolated using negative selection (Miltenyi Biotec, CD8+ T Cell Isolation Kit) and plated with ImmunoCult™ Human CD3/CD28/CD2 T Cell Activator at 25 μl/mL in TexMACS cell culture media supplemented with 1001 U/mL human IL-2 and 100 U/ml Penicillin/Streptomycin. Human CTLs were incubated with Gli1/2 inhibitor GANT61 or EToH (carrier control) overnight and subsequently co-cultured with anti-CD3ε pulsed P815 target cells for 3 h at the indicated effector to target ratios and subjected to an LDH cytotoxicity assay. (A) Representative graph, (B) Quantification of N=3 donors normalised to killing of carrier treated cells at a 10:1 effector:target ratio. Error bars indicate SD. n=3 donors from 2 independent experiments. It is also known that Hh signalling in murine CD8+ T cells is not inducible via administration of extracellular Hh ligands (de la Roche et al. (2013)). Instead, Hh induction occurs via the modulation of L-type voltage-gated calcium (Cav) channels downstream of the T cell receptor. For example, Hanna et al. (2021) report that nifedipine-sensitive Cavs control Gli1 induction in naïve CD8+ T cells and CD8+ CTLs following TCR stimulation. […]

cytotoxic CD4+ T cells = experiment: Flow cytometric analysis of Granzyme B and IFNγ in cytotoxic CD4+ T cells; format: cell-based, mice; details: 5 μM, 24 h
Description: FIG. 9. GzmB content and IFNγ secretion are unaffected by Gli inhibition in cytotoxic CD4+ T cells. Cytotoxic CD4+ cells were generated from OT-II mice and treated with 5 μM GANT61 or carrier control on day 7 for 24 h prior to flow cytometric analysis of Granzyme B (GzmB) and IFNγ levels on day 8. (A) Representative flow cytometry plots in unstimulated (top panel) or restimulated CD4+ T cells (bottom panel). (B) Quantification of steady state GzmB levels and IFNγ levels upon restimulation. Data is from n=3 independent experiments.
as §3

RMA/S tumour cells [3] = experiment: LDH killing assay, murine NK cells with NK-sensitive RMA/S cells; format: cell-based; details: 5 μM GANT61 vs carrier control
Description: as §1, §2

K562 target cells = experiment: Flow-cytometry based killing assay, human Vγ9Vδ2 gammadelta T cells with K562 target cells; format: cell-based; details: pre-treated overnight with GANT61, co-culture 24 h
Description: FIG. 12. GLI1 is important for tumour cell killing of human Vγ9Vδ2 gammadelta T cells and treatment with L-type voltage gated Ca2+ channel agonist FPL 64176 increases killing capacity. PBMCs were isolated from Buffy Coats of healthy donors using SepMate PBMC Isolation Tubes. Vγ9Vδ2 expansion was induced by plating PBMCs at 1×10^6 concentration with 1 μM of Zoledronate in the presence of 100 IU/mL IL-2 and 120 IU/mL IL-15. Cells were split every 2-3 days from day 6 until day 20. Killing assays were conducted between day 16-20. (A) Vγ9Vδ2 T lymphocytes were incubated with Gli1/2 inhibitor GANT61 or EToH (carrier control) overnight and subsequently co-cultured with K562 target cells for 24 h at the indicated effector to target ratios and subjected to a flow-cytometry based killing assay. n=1 individual donor. (B) Vγ9Vδ2 cells were pre-incubated with 10 μM FPL 64176 or EToH (carrier control) before being co-cultured with K562 target cells at indicated effector to target ratios and subjected to a flowcytometric cytotoxicity assay in the presence of 10 μM FPL 64176 or EToH (carrier control). Killing was assessed after 24 hours. Tumour cell killing normalised to carrier treated cells at a 10:1 effector:target ratio. n=4 individual healthy donors from 2 independent experiments. […]

Structure (SMILES): CN(C)c1ccccc1CN1CCCN(Cc2ccccc2N(C)C)C1c1ccncc1 [GANT61]
- specific tumour cell killing (RMA/S tumour cells [1]): greatly reduced
- GzmB content (NK cells): unaffected
- IFNγ secretion (NK cells): unaffected
- reduction in specific cell killing [2]: 50%
- tumour cell killing of human CD8+ cytotoxic lymphocytes (P815 target cells): reduces
- GzmB content (cytotoxic CD4+ T cells): unaffected
- IFNγ secretion (cytotoxic CD4+ T cells): unaffected
- decrease in cell killing (RMA/S tumour cells [3]): ~15%
- killing capacity of K562 target cells by gammadelta T cells (K562 target cells): reduced killing capacity
